Results as given in ChEMBL document CHEMBL1201862, “PubChem BioAssay data set” (2004).
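Step 1: Grow cells in 96-well plates. Step 2: Expose to compound for 48 hours at 5 concentrations. Step 3: Interpolate endpoints linearly; if unreached, use highest concentration. GI50 marks 50% less growth.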 Calls of active or inactive are those of the source. Rule as the data show it: active = GI50 up to about 1.1 µM and inactive = higher.

Columns and labels:
Experiment in all cases: NCI-60 cell line screen, 48 h
ACHN = test system: ACHN
COLO 205 = test system: COLO 205
EKVX = test system: EKVX
HCC 2998 = test system: HCC 2998
HCT-116 = test system: HCT-116
LOX IMVI = test system: LOX IMVI
Malme-3M = test system: Malme-3M
NCI-H226 = test system: NCI-H226
NCI-H23 = test system: NCI-H23
OVCAR-8 = test system: OVCAR-8
SF-539 = test system: SF-539
SNB-75 = test system: SNB-75
UO-31 = test system: UO-31
CAKI-1 = test system: CAKI-1
NCI-H522 = test system: NCI-H522
HOP-92 = test system: HOP-92

Measured: GI50

Cc1nc([N+](=O)[O-])cn1CC(=N)N
inactive: ACHN > 100 µM | COLO 205 > 100 µM | EKVX > 100 µM | HCC 2998 > 100 µM | HCT-116 > 100 µM | LOX IMVI > 100 µM | Malme-3M > 100 µM | NCI-H226 > 100 µM | NCI-H23 > 100 µM | OVCAR-8 > 100 µM | SF-539 > 100 µM | SNB-75 20.8 µM | UO-31 > 100 µM

Cc1cc(N(CCC#N)CCC#N)ccc1/N=N/c1ccc(S(N)(=O)=O)cc1
inactive: ACHN > 100 µM | CAKI-1 28.4 µM | COLO 205 > 100 µM | EKVX > 100 µM | HCC 2998 > 100 µM | LOX IMVI > 100 µM | Malme-3M > 100 µM | NCI-H226 > 100 µM | NCI-H23 > 100 µM | NCI-H522 > 100 µM | OVCAR-8 > 100 µM | SF-539 > 100 µM | SNB-75 > 100 µM | UO-31 85.5 µM

Cc1ccc(S(=O)(=O)OCOS(=O)(=O)c2ccc(C)cc2)cc1
inactive: ACHN > 100 µM | COLO 205 > 100 µM | EKVX > 100 µM | HCC 2998 > 100 µM | HCT-116 > 100 µM | LOX IMVI > 100 µM | Malme-3M > 100 µM | NCI-H23 > 100 µM | NCI-H522 > 100 µM | OVCAR-8 > 100 µM | SF-539 > 100 µM | UO-31 > 100 µM

O=C(O)C1=CCCc2ccc3ccccc3c21
inactive: ACHN > 100 µM | COLO 205 > 100 µM | EKVX > 100 µM | HCT-116 > 100 µM | HOP-92 > 100 µM | LOX IMVI > 100 µM | Malme-3M > 100 µM | NCI-H226 > 100 µM | NCI-H23 > 100 µM | NCI-H522 > 100 µM | OVCAR-8 > 100 µM | SF-539 > 100 µM | SNB-75 85.3 µM | UO-31 > 100 µM

O=C(Nc1cc([N+](=O)[O-])cc([N+](=O)[O-])c1)OC1C2CCC1C1OC1C2 (stereo unspecified)
inactive: ACHN > 50 µM | COLO 205 > 50 µM | EKVX > 50 µM | HCC 2998 > 50 µM | HCT-116 35.8 µM | HOP-92 > 50 µM | Malme-3M 22.9 µM | NCI-H23 > 50 µM | NCI-H522 29.1 µM | OVCAR-8 > 50 µM | SF-539 > 50 µM | SNB-75 23.7 µM | UO-31 19.9 µM

CCNC(=O)C(O)C1(O)CCC2[C@@H]3CCC4=CC(=O)C=C[C@]4(C)C3[C@@H](O)C[C@@]21C (stereo partly specified)
inactive: ACHN > 100 µM | CAKI-1 > 100 µM | COLO 205 > 100 µM | EKVX > 100 µM | HCC 2998 > 100 µM | HCT-116 > 100 µM | LOX IMVI > 95.1 µM | Malme-3M > 100 µM | NCI-H226 > 87.5 µM | NCI-H23 > 100 µM | NCI-H522 > 100 µM | OVCAR-8 > 100 µM | SF-539 > 100 µM | SNB-75 > 100 µM | UO-31 > 100 µM
